The values below come from patent US6783949B1, “Processes for determining whether a test substance contains lipases or lipase inhibitors” (Aventis Pharma Deutschland GmbH, priority 1999, dated 2004).

Structures are written as SMILES. Values joined by “and” are separate entries in the source; they are usually repeats but may differ in a detail not shown here. Equal entries are not always repeated.

The target of assay [1] is T1, HSL (Rattus norvegicus, UniProt P15304).
T1 construct: The partially purified HSL can be stored at −70° C. for 4 to 6 weeks; from tissue; host or cells: rat epididymal fat cells (male Wistar rats)
T1 sequence (P15304 1-768 isoform P15304-2): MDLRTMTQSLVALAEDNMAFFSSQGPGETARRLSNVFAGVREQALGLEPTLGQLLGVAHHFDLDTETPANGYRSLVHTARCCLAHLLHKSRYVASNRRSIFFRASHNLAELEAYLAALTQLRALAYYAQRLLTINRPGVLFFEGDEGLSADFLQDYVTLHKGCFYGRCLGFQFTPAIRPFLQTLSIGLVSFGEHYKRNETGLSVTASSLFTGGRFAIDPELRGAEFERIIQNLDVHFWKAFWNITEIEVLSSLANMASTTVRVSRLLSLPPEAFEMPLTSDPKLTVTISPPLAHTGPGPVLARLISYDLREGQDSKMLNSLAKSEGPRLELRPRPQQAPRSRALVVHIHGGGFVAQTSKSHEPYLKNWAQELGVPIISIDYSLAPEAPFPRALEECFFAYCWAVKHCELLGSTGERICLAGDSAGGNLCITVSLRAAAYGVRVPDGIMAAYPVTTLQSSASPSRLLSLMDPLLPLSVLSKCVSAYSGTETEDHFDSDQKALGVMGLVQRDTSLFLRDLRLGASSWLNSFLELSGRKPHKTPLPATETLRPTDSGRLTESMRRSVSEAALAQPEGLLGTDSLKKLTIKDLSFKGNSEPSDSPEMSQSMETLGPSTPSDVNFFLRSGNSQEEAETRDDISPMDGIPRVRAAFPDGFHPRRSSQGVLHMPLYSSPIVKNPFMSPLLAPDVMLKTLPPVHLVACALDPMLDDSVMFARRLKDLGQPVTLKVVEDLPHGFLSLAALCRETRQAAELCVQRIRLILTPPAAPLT
The assay can be described thus: TAG assay ([3H]trioleoylglycerol cleavage). In kind it is biochemical. The procedure:
Isolated rat fat cells are obtained from epididymal fatty tissue from untreated male rats (Wistar, 220-250 g) by collagenase treatment according to published processes. The fat cells from 10 rats are washed three times by flotation with 50 ml each of homogenization buffer ([…], pH 7.4, 0.25 M sucrose, 1 mM ethylenediamine-N,N,N′,N′-tetraacetic acid (EDTA), 1 mM dithiothreitol (DTT), 10 μg/ml of leupeptin, 10 μg/ml of antipain, 20 μg/ml of pepstatin) and finally taken up in 10 ml of homogenization buffer. The fat cells are homogenized in a Teflon-in-glass homogenizer (Braun-Melsungen) by 10 strokes at 1500 rpm and 15° C. […]
For the preparation of the substrate, 25-50 μCi of [^3H]trioleoylglycerol (TAG)(in toluene), 6.8 μMol of unlabeled trioleoylglycerol, and 0.6 mg of phospholipids (phosphatidylcholine/phosphatidylinositol 3:1 w/v) are mixed, dried over N2, and then taken up in 2 ml of 0.1 M potassium dihydrogenphosphate/potassium phosphate buffer (KPi)(pH 7.0) by ultrasonic treatment (Branson 250, microtip, setting 1-2, 2×1 min at a 1 min interval). […] After phase separation, one equivalent of the upper phase (1 ml) is taken and the radioactivity is determined by liquid scintillation measurement.
Substances are customarily tested in four independent batches. […] The IC50 value is calculated by means of an inhibition curve using at least 10 concentrations of the test substance. […]

The subject of assay [2] is PLA2 from snake venom. The assay can be described thus: Cleavage of NAG by PLA2. As to conditions: 60 min, NAG 0.05 mg/ml. The class given is biochemical.

As usually defined, the IC50 is the concentration needed to halve the response being measured. Consider `O=C(CCCCCCCCCCCNc1ccc([N+](=O)[O-])c2nonc12)OCC(O)CO` (racemic) [Compound 3], for which, in assay [1], the IC50 is 15.3 µM and 17.3 µM.

For the molecule `O=C(CCCCCCCCCCCNc1ccc([N+](=O)[O-])c2nonc12)OCC(O)CO` (centres unmarked) [Compound (3)], the “Increase in the absorption at 481 nm” value in assay [2] (PLA2, enzyme 10 arb. units) worked out at 1 ± 1 arb. units; in assay [2] (PLA2, enzyme 20 arb. units) it was 3 ± 2 arb. units; in assay [2] (PLA2, enzyme 50 arb. units) it was 5 ± 1 arb. units; in assay [2] (PLA2, enzyme 75 arb. units) it was 8 ± 2 arb. units; in assay [2] (PLA2, enzyme 100 arb. units), 10 ± 2 arb. units; in assay [2] (PLA2, enzyme 150 arb. units), 26 ± 6 arb. units. Further, the “Increase in the absorption at 481 nm” value in assay [2] (PLA2, enzyme 200 arb. units) turned out to be 35 ± 9 arb. units; in assay [2] (PLA2, enzyme 250 arb. units), 46 ± 12 arb. units; in assay [2] (PLA2, enzyme 300 arb. units) it was 54 ± 9 arb. units; in assay [2] (PLA2, enzyme 400 arb. units) it was 75 ± 11 arb. units.
